From publication PMC8156053, “Synthesis, Characterization, and In Vitro Insulin-Mimetic Activity Evaluation of Valine Schiff Base Coordination Compounds of Oxidovanadium(V)” (Biomedicines, 2021) come the findings set out here.

In experiment [1] the target is T1, bovine serum albumin (BSA) (Bos taurus, UniProt P02769).
T1 construct: α-Amylase from porcine pancreas, bovine serum albumin (BSA); purchased SIGMA-Aldrich (Merck KGaA, Darmstadt, Germany)
In words: Fluorescence quenching of serum albumin (Stern–Volmer). It counts as binding. Conditions: highest tested concentration (2.5 × 10^−5 M), 2 × 10^−6 M BSA, PBS pH 7.4, vs free BSA and BSA with DMSO. The method, then:
The capacity of the oxidovanadium(V) compounds to bind to bovine serum albumin (BSA) was monitored by fluorescence quenching assay. A solution of 2 × 10^−6 M BSA in PBS, pH 7.4, was incubated for 2 h at 37 b0C with each vanadium-based compound or V^IVOSO4•3H2O at increasing molar concentrations (1 × 10^−6 ÷ 2.5 × 10^−5 M) or with 0.025% DMSO (negative control). The samples were excited at 295 nm and the emission spectra of all BSA solutions were recorded in the 300 ÷ 450 nm range using a JASCO FP-750 spectrofluorometer. The final spectrum was the average of three recordings measured at a scanning speed of 250 nm/minute, with an excitation and emission bandwidth of 5 nm. […] In addition, by applying the Stern–Volmer equation [23], the mechanism by which the complexes bind to BSA was investigated as it is described in the Supplementary material.
The Stern–Volmer e quation
The Stern–Vol mer equation [1] is:
I0/I= 1+ Kqτ0[Q] = 1 + Ksv[Q], where: I0 = the fluor escence intensities of fr ee BS A solution at 347 nm, I = the fluorescence intensities of BS A solution at 347 nm in the presence of vanadium […]
[Q] = the concentration of vanadium co mplexes, τ0 = the fluorescence l ifetime of the biopolymer (10-8 s), Kq = the coll isi on quenching constant;
Ksv = the Stern-Volmer constant.
Stern–Vol mer plots of the B SA fluorescence quenching in t he prese nce of each compou nd are represented in Fig. S4, together with the ir linear best fit in which y = I0/I, x = [Q], a = slope of the li ne, […]
The fluorescence intensitie s are the average of three recordings measured at a scanning speed of 250 nm/min, with an excitation and emissio n bandwidth of 5 nm.

Experiment [2] relates to HepG2 cells. In words: Cytotoxicity, XTT cell viability assay. It counts as cell-based, human. Particulars: highest concentration (3 × 10^−4 M), 24 h, compared to control cells.
Method: HepG2 cell line was purchased from American Type Culture Collection. The cells were grown in Dulbecco’s Modified Eagle’s Medium (DMEM) with 4.5‰ glucose, supplemented with 10% (v/v) fetal bovine serum, 100 units/mL penicillin, and 100 µg/mL streptomycin (complete medium). HepG2 cells were maintained at 37 °C in a 5% carbon dioxide incubator and were periodically sub-cultivated.
To determine the cytotoxic concentration of the synthesized oxidovanadium(V) complexes and V^IVOSO4•3H2O, HepG2 cells were incubated with increasing molar concentrations (1 × 10^−5 ÷ 3 × 10^−4 M) of compounds.
HepG2 cells (1.5 × 10^4 cells/mL) were seeded in complete medium on a 96-well cell culture plate and were incubated at 37 b0C, as previously described. […] Control cells were represented by cells exposed to free-complete medium and medium supplemented with 0.15% DMSO. The cytotoxicity of tested compounds on the HepG2 cell line was assessed by the 2, 3-bis-(2-methoxy-4-nitro-5-sulfophenyl)-2H-tetrazolium-5-carboxanilide) (XTT) cell viability assay. The method is based on the reduction of XTT, in the presence of phenazine methosulfate, to a water-soluble orange formazan derivative. The absorbance of the sample, due to the intensity of the orange color, which is proportional to the number of viable cells, was recorded at 450 nm using the Tecan Infinite M200Pro spectrophotometer.

The structures appear in SMILES notation.

T1 sequence (P02769 25-607): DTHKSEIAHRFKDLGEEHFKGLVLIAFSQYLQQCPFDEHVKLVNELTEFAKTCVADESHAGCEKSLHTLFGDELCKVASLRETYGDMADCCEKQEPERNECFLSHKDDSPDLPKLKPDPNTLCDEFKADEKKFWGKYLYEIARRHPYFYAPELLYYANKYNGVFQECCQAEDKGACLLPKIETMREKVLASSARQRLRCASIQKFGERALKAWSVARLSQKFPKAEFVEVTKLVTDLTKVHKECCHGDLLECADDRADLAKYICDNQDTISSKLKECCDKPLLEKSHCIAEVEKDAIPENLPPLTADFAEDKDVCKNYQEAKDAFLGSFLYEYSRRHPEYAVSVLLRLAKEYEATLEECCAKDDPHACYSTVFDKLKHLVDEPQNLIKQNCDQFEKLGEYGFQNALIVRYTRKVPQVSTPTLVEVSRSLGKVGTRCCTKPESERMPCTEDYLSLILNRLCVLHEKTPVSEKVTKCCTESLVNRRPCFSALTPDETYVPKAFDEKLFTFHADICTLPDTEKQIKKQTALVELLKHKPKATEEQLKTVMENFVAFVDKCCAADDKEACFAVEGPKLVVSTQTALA

For `O.O.O.O=S(=O)([O-])[O-].[O]=[V+2]` [V^IVOSO4•3H2O, reference compound], the “decrease of BSA fluorescence intensity” value in experiment [1] is on record as “does not reduce the fluorescence intensity of BSA”. Further, the “reduction of HepG2 viability” value in experiment [2] is given as 34%.
